Reference: US20230270745A1 (Seagen Inc., priority 2020, published 2023)

Tests used:
[1] = tested on: Calu-3 NSCLC xenograft model; experiment: Calu-3 NSCLC xenograft model, tumor growth inhibition; assay type: in vivo, Mice; details: study day 28; tucatinib 50 mg/kg orally twice per day for 21 days, trastuzumab 20 mg/kg intraperitoneally once every three days, from study day 7
Method: (§1) The TGI index is calculated for a particular time point (e.g., a specific number of days into an experiment or clinical trial) according to the following formula: […]
(§2) where “Tx Day 0” denotes the first day that treatment is administered (i.e., the first day that an experimental therapy or a control therapy (e.g., vehicle only) is administered) and “Tx Day X” denotes X number of days after Day 0. […] As a non-limiting example, in an experiment where study day 0 corresponds to “Tx Day 0” and the TGI index is calculated on study day 28 (i.e., “Tx Day 28”), if the mean tumor volume in both groups on study day 0 is 250 mm^3 and the mean tumor volumes in the experimental and control groups are 125 mm^3 and 750 mm^3, respectively, then the TGI index on day 28 is 125%.
(§3) For the Calu-3 study, tucatinib was administered orally at a dose of 50 mg/kg twice per day for 21 days, beginning on study day 7. […] A vehicle-only group was included as a negative control.

[2] = tested on: CTG-0137 HER2 positive esophageal cancer PDX model; experiment: CTG-0137 esophageal cancer PDX model, tumor growth inhibition; assay type: in vivo, Mice; details: study day 15; tucatinib 50 mg/kg orally twice per day, trastuzumab 20 mg/kg intraperitoneally once every three days
Method: as §1, §2
(§4) Tucatinib was administered orally at a dose of 50 mg/kg twice per day for 28 days (study days 0-27). […] A vehicle-only group was included as a negative control.

[3] = tested on: GXA 3038 HER2 positive gastric cancer PDX model; experiment: GXA 3038 gastric cancer PDX model, tumor growth inhibition; assay type: in vivo, Mice; details: study day 28; tucatinib 50 mg/kg orally twice per day, trastuzumab 20 mg/kg intraperitoneally once every three days
Method: as §1, §2, §4

[4] = tested on: GXA 3054 HER2 positive gastric cancer PDX model; experiment: GXA 3054 gastric cancer PDX model, tumor growth inhibition; assay type: in vivo, Mice; details: study day 17; tucatinib 50 mg/kg orally twice per day, trastuzumab 20 mg/kg intraperitoneally once every three days
Method: as §1, §2, §4

[5] = tested on: CTG-0138 HER2 positive esophageal cancer PDX model; experiment: CTG-0138 esophageal cancer PDX model, tumor growth inhibition; assay type: in vivo, Mice; details: study day 30; tucatinib 50 mg/kg orally twice per day, trastuzumab 20 mg/kg intraperitoneally once every three days
Method: as §1, §2, §4

[6] = tested on: CTG-0927 HER2 positive cholangiocarcinoma PDX model; experiment: CTG-0927 cholangiocarcinoma PDX model, tumor growth inhibition; assay type: in vivo, Mice; details: study day 28; tucatinib 50 mg/kg orally twice per day, trastuzumab 20 mg/kg intraperitoneally once every three days
Method: as §1, §2, §4

[7] = tested on: CTG-0383 HER2 positive CRC PDX model; experiment: CTG-0383 CRC PDX model, tumor growth inhibition; assay type: in vivo, Mice; details: study day 29; tucatinib 50 mg/kg orally twice per day, trastuzumab 20 mg/kg intraperitoneally once every three days
Method: as §1, §2, §4

Calu-3 cells = experiment: Response of Calu-3 cells to tucatinib in vitro; assay type: cell-based; details: previously demonstrated
[8] = tested on: CTG-0121 HER2 positive CRC PDX model; experiment: CTG-0121 CRC PDX model, tumor growth inhibition; assay type: in vivo, Mice; details: study day 29; tucatinib 50 mg/kg orally twice per day, trastuzumab 20 mg/kg intraperitoneally once every three days
Method: as §1, §2, §4

[9] = tested on: GXA 3039 HER2 positive gastric cancer PDX model; experiment: GXA 3039 gastric cancer PDX model, tumor growth inhibition; assay type: in vivo, Mice; details: study day 29; tucatinib 50 mg/kg orally twice per day, trastuzumab 20 mg/kg intraperitoneally once every three days
Method: as §1, §2, §4

[10] = tested on: NCI-H2170 NSCLC xenograft model; experiment: NCI-H2170 NSCLC xenograft model, tumor growth inhibition; assay type: in vivo, Mice; details: study day 39; tucatinib 50 mg/kg orally twice per day for 21 days, trastuzumab 20 mg/kg intraperitoneally twice per week, from study day 18
Method: as §1, §2, §3
For the NCI-H2170 study, tucatinib was administered orally at a dose of 50 mg/kg twice per day for 21 days, beginning on study day 18. […] A vehicle-only group was included as a negative control.

[11] = tested on: CTG-0784 HER2 positive CRC PDX model; experiment: CTG-0784 CRC PDX model, tumor growth inhibition; assay type: in vivo, Mice; details: study day 29; tucatinib 50 mg/kg orally twice per day, trastuzumab 20 mg/kg intraperitoneally once every three days
Method: as §1, §2, §4

NCI-H2170 cells = experiment: Response of NCI-H2170 cells to tucatinib in vitro; assay type: cell-based; details: previously demonstrated

Cc1cc(Nc2ncnc3ccc(NC4=NC(C)(C)CO4)cc23)ccc1Oc1ccn2ncnc2c1 [Tucatinib, tucatinib]
Observed TGI (tumor growth inhibition index) [1]: 63%
Observed TGI (tumor growth inhibition index) [2]: 49%
Observed TGI (tumor growth inhibition index) [3]: 110%
Observed TGI (tumor growth inhibition index) [4]: 65%
Observed TGI (tumor growth inhibition index) [5]: 69%
Observed TGI (tumor growth inhibition index) [6]: 48%
Observed TGI (tumor growth inhibition index) [7]: 117%
Response to tucatinib in vitro (Calu-3 cells): good responses
Observed TGI (tumor growth inhibition index) [8]: 104%
Observed TGI (tumor growth inhibition index) [9]: 48%
Observed TGI (tumor growth inhibition index) [10]: 91%
Observed TGI (tumor growth inhibition index) [11]: 50%
Response to tucatinib in vitro (NCI-H2170 cells): good responses
